Source: ChEMBL document CHEMBL1641505, “17β-HSD2 inhibitors for the treatment of osteoporosis: Identification of a promising scaffold” (Bioorg Med Chem, 2011)

Assays:
[1] = molecular target: T1, 17-beta-hydroxysteroid dehydrogenase type 1 (Homo sapiens) (UniProt P14061); test: Inhibition of [3H]E1 binding to human placental 17beta-HSD1 at 1 uM after 20 mins
T1 sequence (whole entry): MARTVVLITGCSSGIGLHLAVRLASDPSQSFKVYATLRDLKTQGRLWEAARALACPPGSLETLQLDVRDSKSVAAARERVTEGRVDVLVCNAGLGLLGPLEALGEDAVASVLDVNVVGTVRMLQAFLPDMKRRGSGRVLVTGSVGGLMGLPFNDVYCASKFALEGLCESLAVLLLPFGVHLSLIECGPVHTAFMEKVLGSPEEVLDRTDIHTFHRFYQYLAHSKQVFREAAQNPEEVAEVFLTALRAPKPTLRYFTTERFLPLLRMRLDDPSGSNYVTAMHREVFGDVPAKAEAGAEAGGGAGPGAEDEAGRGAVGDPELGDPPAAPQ

[2] = molecular target: T2, 17-beta-hydroxysteroid dehydrogenase type 2 (Homo sapiens) (UniProt P37059); test: Inhibition of [3H]E2 binding to human placental 17beta-HSD2 at 1 uM after 20 mins
T2 sequence (whole entry): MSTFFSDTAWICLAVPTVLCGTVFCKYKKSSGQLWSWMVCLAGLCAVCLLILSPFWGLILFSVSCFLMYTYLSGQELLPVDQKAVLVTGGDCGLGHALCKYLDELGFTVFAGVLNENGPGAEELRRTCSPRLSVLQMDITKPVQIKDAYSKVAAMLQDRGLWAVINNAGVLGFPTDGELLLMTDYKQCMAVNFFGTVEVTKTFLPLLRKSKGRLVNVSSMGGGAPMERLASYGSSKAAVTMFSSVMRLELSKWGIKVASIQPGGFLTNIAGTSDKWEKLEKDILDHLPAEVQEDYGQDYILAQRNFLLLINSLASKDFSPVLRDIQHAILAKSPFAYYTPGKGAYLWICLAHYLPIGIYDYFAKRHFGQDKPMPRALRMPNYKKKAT

[3] = molecular target: T3, 17-beta-hydroxysteroid dehydrogenase type 2 (Homo sapiens, UniProt P37059); test: Inhibition of [3H]E2 binding to human placental 17beta-HSD2 after 20 mins
T3 sequence (P37059 whole entry): T2 sequence (whole entry)

[4] = species: Homo sapiens; test: Selectivity ratio of IC50 for human placental 17beta-HSD1 to IC50 for human placental 17beta-HSD2
[5] = molecular target: T4, 17-beta-hydroxysteroid dehydrogenase type 1 (Homo sapiens, UniProt P14061); test: Inhibition of [3H]E1 binding to human placental 17beta-HSD1 after 20 mins
T4 sequence (P14061 whole entry): T1 sequence (whole entry)

[6] = molecular target: Estrogen receptor beta (Homo sapiens) (UniProt Q92731); test: Displacement of [3H]E2 from human recombinant ERbeta by liquid scintillation counting relative to estradiol
Chain of Estrogen receptor beta (Homo sapiens) (Q92731 whole entry): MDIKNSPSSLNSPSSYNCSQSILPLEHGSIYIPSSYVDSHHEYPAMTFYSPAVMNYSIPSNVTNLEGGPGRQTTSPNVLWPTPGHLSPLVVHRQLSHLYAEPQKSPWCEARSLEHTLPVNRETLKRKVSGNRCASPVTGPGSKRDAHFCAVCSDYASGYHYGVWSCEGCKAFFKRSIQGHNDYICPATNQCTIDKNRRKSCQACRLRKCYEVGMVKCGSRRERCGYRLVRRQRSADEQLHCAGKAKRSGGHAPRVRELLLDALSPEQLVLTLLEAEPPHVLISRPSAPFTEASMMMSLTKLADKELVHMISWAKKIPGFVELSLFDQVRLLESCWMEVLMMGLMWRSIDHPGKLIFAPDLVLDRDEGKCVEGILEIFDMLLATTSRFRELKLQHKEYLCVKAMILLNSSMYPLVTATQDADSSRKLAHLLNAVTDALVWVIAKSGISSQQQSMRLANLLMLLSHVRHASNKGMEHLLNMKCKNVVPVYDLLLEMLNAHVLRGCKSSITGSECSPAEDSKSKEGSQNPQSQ

[7] = molecular target: T5, Estrogen receptor (Homo sapiens) (UniProt P03372); test: Displacement of [3H]E2 from human recombinant ERalpha by liquid scintillation counting relative to estradiol
T5 sequence (whole entry): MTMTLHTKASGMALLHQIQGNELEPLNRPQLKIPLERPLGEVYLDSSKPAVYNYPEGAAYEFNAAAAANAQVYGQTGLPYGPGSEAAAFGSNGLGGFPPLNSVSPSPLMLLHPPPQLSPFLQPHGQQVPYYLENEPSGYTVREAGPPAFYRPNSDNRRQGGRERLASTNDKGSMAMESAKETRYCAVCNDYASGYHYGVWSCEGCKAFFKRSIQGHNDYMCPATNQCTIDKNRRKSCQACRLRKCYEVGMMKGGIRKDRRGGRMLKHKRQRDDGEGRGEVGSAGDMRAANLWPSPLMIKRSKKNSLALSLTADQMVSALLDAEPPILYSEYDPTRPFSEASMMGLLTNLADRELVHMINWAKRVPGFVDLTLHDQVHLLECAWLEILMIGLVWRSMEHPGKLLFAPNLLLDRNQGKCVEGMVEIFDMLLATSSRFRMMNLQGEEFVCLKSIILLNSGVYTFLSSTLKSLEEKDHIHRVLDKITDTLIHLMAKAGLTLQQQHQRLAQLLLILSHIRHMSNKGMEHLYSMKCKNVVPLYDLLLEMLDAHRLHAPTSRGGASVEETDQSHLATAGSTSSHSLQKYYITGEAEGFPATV

Row | Structure (SMILES) | inhibition [1] | inhibition [2] | also measured
1 | CS(=O)(=O)Nc1ccc(-c2ccc(O)cc2)cc1 | < 10% | < 10% | –
2 | Oc1cccc2cc(-c3ccncc3)ccc12 | < 10% | 26% | –
3 | CNC(=O)c1cccc(-c2ccc3c(O)cccc3c2)c1 | < 10% | 43% | –
4 | CNS(=O)(=O)c1ccc(-c2ccc3c(O)cccc3c2)cc1 | 12% | 57% | –
5 | Oc1cccc2cc(-c3ccccc3)ccc12 | < 10% | 20% | –
6 | CS(=O)(=O)Nc1ccc(-c2ccc3c(O)cccc3c2)cc1 | 52% | 75% | IC50 [3]: 600 nM; Ratio IC50 [4]: 1; IC50 [5]: 614 nM
7 | COc1ccc(-c2ccc3c(O)cccc3c2)cc1 | 28% | 20% | –
8 | CS(=O)(=O)Nc1ccc(-c2ccc(CO)cc2)cc1 | < 10% | < 10% | –
9 | COc1ccc(C(=O)N(C)c2cccc(-c3ccc(OC)cc3)c2)cc1 | < 10% | 20% | –
10 | CS(=O)(=O)Nc1cccc(-c2ccc3c(O)cccc3c2)c1 | 19% | 22% | –
11 | COc1ccncc1-c1ccc2c(O)cccc2c1 | < 10% | < 10% | –
12 | N#Cc1ccc(-c2ccc3c(O)cccc3c2)cc1 | 16% | 12% | –
13 | Cc1cccc(S(=O)(=O)Nc2ccc(-c3ccc(O)cc3)cc2)c1 | < 10% | 14% | –
14 | COc1ccc(-c2cccc(N(C)C(=O)Cc3cccc(OC)c3)c2)cc1 | < 10% | < 10% | –
15 | O=[N+]([O-])c1ccc(-c2ccc3c(O)cccc3c2)cc1 | 15% | 13% | –
16 | CC(=O)Nc1cccc(-c2ccc(O)cc2)c1 | < 10% | < 10% | –
17 | CN(C(=O)c1ccccc1)c1cccc(-c2ccc(CO)cc2)c1 | < 10% | < 10% | –
18 | COc1ccc(C(=O)N(C)c2cccc(-c3ccc(CO)cc3)c2)cc1 | < 10% | 14% | –
19 | Oc1cccc2cc(-c3cncnc3)ccc12 | < 10% | < 10% | –
20 | O=C(Nc1cccc(-c2ccc(O)cc2)c1)c1ccccc1 | < 10% | < 10% | –
21 | Oc1ccc(-c2ccc3c(O)cccc3c2)cc1 | 20% | 74% | Activity [6]: 5%; Activity [7]: 5%; Ratio IC50 [4]: 8
22 | Oc1cccc(-c2ccc3c(O)cccc3c2)c1 | – | 32% | –

Row | Structure (SMILES) | inhibition [1] | inhibition [2] | also measured
23 | OCc1ccc(-c2ccc3c(O)cccc3c2)cc1 | 14% | 31% | –
24 | COc1ccc(CC(=O)N(C)c2cccc(-c3ccc(CO)cc3)c2)cc1 | < 10% | < 10% | –
25 | CC(=O)c1ccc(-c2ccc3c(O)cccc3c2)cc1 | 16% | < 10% | –
26 | Oc1cccc(-c2ccc3ccccc3c2)c1 | – | 12% | –
27 | Oc1cccc2cc(-c3ccc(F)cc3)ccc12 | < 10% | < 10% | –
28 | CN(C(=O)c1ccccc1)c1cccc(-c2ccc(O)cc2)c1 | < 10% | 46% | –
29 | COc1cccc(CC(=O)N(C)c2cccc(-c3ccc(CO)cc3)c2)c1 | < 10% | 12% | –
30 | COc1ccc(-c2cccc(N(C)C(=O)c3cccc(OC)c3)c2)cc1 | 16% | 13% | –
31 | O=C(O)c1ccc(-c2ccc3c(O)cccc3c2)cc1 | < 10% | 16% | –
32 | COc1cccc(C(=O)N(C)c2cccc(-c3ccc(CO)cc3)c2)c1 | < 10% | 15% | –
33 | O=C(Nc1cccc(-c2ccc3c(O)cccc3c2)c1)c1ccccc1 | < 10% | < 10% | –
34 | Oc1cccc(-c2ccc3cc(O)ccc3c2)c1 | 100% | – | Ratio IC50 [4]: 0.02
35 | O=C(Nc1cccc(-c2ccc(CO)cc2)c1)c1ccccc1 | < 10% | < 10% | –
36 | CC(=O)Nc1cccc(-c2ccc3c(O)cccc3c2)c1 | 12% | 64% | IC50 [3]: 696 nM; Ratio IC50 [4]: 12; IC50 [5]: 8520 nM
37 | Cc1cccc(S(=O)(=O)Nc2ccc(-c3ccc(CO)cc3)cc2)c1 | < 10% | 12% | –
38 | CN(C(=O)Cc1cccc(O)c1)c1cccc(-c2ccc(O)cc2)c1 | < 10% | – | –
39 | CNC(=O)c1ccc(-c2ccc3c(O)cccc3c2)cc1 | < 10% | 13% | –
40 | Oc1ccc2cc(-c3ccccc3)ccc2c1 | 44% | 17% | –
41 | COc1ccc(CC(=O)N(C)c2cccc(-c3ccc(OC)cc3)c2)cc1 | 25% | 10% | –
42 | Oc1cccc2cc(-c3ccoc3)ccc12 | < 10% | 13% | –
43 | Oc1ccc2cc(-c3ccccc3O)ccc2c1 | – | < 10% | –
44 | CC(=O)Nc1cccc(-c2ccc(CO)cc2)c1 | < 10% | < 10% | –
